The source of these data is patent US20120269913A1, “CRUDE CAFFEINE COMPLEX, IMPROVED FOOD PRODUCTS USING THE CRUDE CAFFEINE COMPLEX, AND METHODS OF USE THEREOF” (priority 2009, published 2012).

Test [1] can be described thus: ORAC assay adapted for the linoleate microemulsion system, combination with α-tocopherol. The settings on record: in combination with α-tocopherol; 100% = additive, >100% = synergistic.
Text: Using an ORAC assay adapted for the linoleate microemulsion system (Sim, W. L. S. et al., Journal of Agricultural and Food Chemistry 57: 3409-3414 (2009)), we determined the antioxidant activity of α-tocopherol (a form of vitamin E) combined with crude caffeine, ascorbic acid, and chlorogenic acid. Data were expressed as relative ORAC: a relative ORAC of 100% means that the antioxidant activity of the mixture equaled the sum of each component's antioxidant activity (additive effect), whereas a relative ORAC greater than 100% means that the antioxidant activity of the mixture was greater than the sum of each component's antioxidant activity (synergistic effect).
In a 15-mL test tube, methyl linoleate (1.2 g), Tween-20 (2.9 g), n-butanol (1.5 g), and potassium phosphate buffer (4.4 g) were vortexed until the resulting solution was clear. […] A control well containing 200 μL of microemulsion and 40 μL of phosphate buffer was used to normalize the fluorescence reading. The reaction kinetics were monitored at 37° C. for 2 h, with readings every 2 min, by a Synergy HT microplate fluorescent reader (Biotek Instruments Inc.). The microplate reader was fitted with an excitation filter at 485 nm, an emission filter of 590 nm, and an oxygen sensor biosystem, and the plate was shaken for 20 s at low intensity before each reading to ensure sufficient mixing. […]
A further test addresses T1, COX-2 enzyme (Homo sapiens, UniProt P35354).
T1 sequence (P35354 18-604): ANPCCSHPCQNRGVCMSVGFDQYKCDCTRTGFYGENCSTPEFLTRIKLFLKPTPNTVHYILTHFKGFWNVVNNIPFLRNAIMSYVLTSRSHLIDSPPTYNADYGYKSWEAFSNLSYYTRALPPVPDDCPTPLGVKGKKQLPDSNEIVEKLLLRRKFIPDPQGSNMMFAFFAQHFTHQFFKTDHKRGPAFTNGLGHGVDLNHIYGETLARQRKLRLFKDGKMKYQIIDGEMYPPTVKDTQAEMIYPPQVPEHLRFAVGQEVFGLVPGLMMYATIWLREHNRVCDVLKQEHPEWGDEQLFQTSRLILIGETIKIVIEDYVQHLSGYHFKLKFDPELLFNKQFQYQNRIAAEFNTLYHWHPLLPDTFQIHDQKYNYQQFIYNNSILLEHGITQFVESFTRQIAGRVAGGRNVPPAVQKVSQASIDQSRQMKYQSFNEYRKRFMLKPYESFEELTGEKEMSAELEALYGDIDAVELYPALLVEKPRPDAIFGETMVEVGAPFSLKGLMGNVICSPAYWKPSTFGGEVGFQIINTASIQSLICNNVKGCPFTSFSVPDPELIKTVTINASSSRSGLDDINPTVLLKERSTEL
The experiment in a line: COX-2 inhibition (oxygen consumption). The class given is biochemical. The procedure:
As discussed above, the ability to inhibit the COX-2 enzyme is understood as providing anti-inflammatory activities. […] IC50 indicates the effective dose needed to achieve about 50 percent inhibition of the COX-2 enzyme.
COX-2 inhibition. Oxygen consumption was measured in the reaction chamber of an Oxytherm (Hansatech Instrumental, Norfolk, England) at 37° C. The reaction mixture consisting of 0.5 mL Tris buffer (0.1 M, pH 8.0), 5 μL heme [100 μM in dimethyl sulfoxide (DMSO)], and 10 μL of COX-2 enzyme was incubated for 1 min. Five microliters of each sample (in DMSO or ethanol) was added and the mixture was incubated for an additional 1 min. The assay was initiated by adding 5 μL arachidonic acid, and the oxygen concentration was monitored. The initial oxygen consumption rate was obtained from the kinetic curve. COX-2 inhibition was expressed as the inhibitor concentration at which the initial oxygen consumption rate decreased by 50% (IC50).

Test [2] is described as follows: Oxygen radical absorbance capacity, hydrophilic fraction (ORAChydro). The following applies: crude caffeine complex of Example 1 vs pure caffeine.
Experimental: Oxygen radical absorbance capacity. To determine antioxidant values of the hydrophilic fraction (ORAChydro), 5 g crude caffeine was extracted with 20 mL acetone/water (50:50 v/v) on an orbital shaker at room temperature for 1 h. The mixtures were centrifuged at 1972×g in a Rotanta 460R centrifuge (GMI, Ramsey, Minn.). […] The excitation wavelength was set at 485 (±20) nm and the emission wavelength set at 530 (±25) nm. To determine antioxidant values of the lipophilic fraction (ORAClipo), 5 g crude caffeine was extracted twice with 10 mL hexane/dichloromethane (50:50 v/v).
Test [3] relates to human skeletal muscle cells. The experiment in a line: Glucose uptake (3H-2-deoxyglucose) in human skeletal muscle cells. The class given is cell-based. The settings on record: about 0.01 mg/mL, p<0.05. How it is done: (§1) The effect of the crude caffeine extract of Example 1 on glucose uptake in both human adipocytes (fat) and skeletal muscle cells (SMC) was tested (Zen Bio Research, Triangle Park, N.C.).
(§2) Data were analyzed by one-way ANOVA followed by Tukey's post hoc test for multiple comparisons. In FIG. 6, results are expressed as mean±SD. The asterisk * denotes P<0.05 compared with human skeletal muscle cells; the carrot top A denotes P<0.05 compared with untreated human adipocytes.
(§3) Glucose uptake. The in vitro effects of crude caffeine on glucose uptake were assessed with human adipocytes and skeletal muscle cells (Zen-Bio, Research Triangle Park, N.C.). Briefly, primary human subcutaneous adipocytes or primary human myoblasts were differentiated in 96-well microplates. […] All samples, including the positive and negative controls, were tested in triplicate. After a 2-h incubation at 37° C. and 5% CO2, the cells were washed with PBS and lysed. The cell lysate was mixed with scintillation fluid and radioactivity of each well was measured as counts per minute (CPM).

Another test relates to human adipocytes. Description: Glucose uptake (3H-2-deoxyglucose) in human adipocytes. In kind it is cell-based. The settings on record: about 0.01 mg/mL, p<0.05. The procedure: as §1, §2, §3

Where two headings read alike, the source gives them in different places.

`O=C1O[C@H]([C@@H](O)CO)C(O)=C1O` [ascorbic acid]: the “relative ORAC” value in test [1] worked out at 100%.

Regarding `O=C(/C=C/c1ccc(O)c(O)c1)O[C@@H]1C[C@](O)(C(=O)O)C[C@@H](O)[C@H]1O` [chlorogenic acid], the “relative ORAC” value in test [1] is given as 168%.

Take `Cn1c(=O)c2c(ncn2C)n(C)c1=O` [pure caffeine, 1,3,7-trimethylxanthine]: the “COX-2 inhibitory activity (in words)” value is “no such inhibitory activity” at COX-2 enzyme and “did not inhibit COX-2 activity” on COX-2 enzyme (listed as Pure caffeine). The ORAChydro in test [2] is 5 μmol TE/g. Besides, the “increase in glucose uptake as compared to a control” value (in test [3]; in the test with human adipocytes) was “no such effect” throughout.
